Source: PubChem BioAssay AID1963968 (Molecular Pharmacology Branch, DTP, NCI, 2024)

Test system: 945468-187-T-J3-PDC spheroids with HUVEC/MSC, viability
Experiment: Anticancer human tumor 945468-187-T-J3-PDC patient-derived rectal carcinoma cell line growth inhibition [PI3K]
Conditions: for IC50: curve of first compound; for viability, T/C: stronger effect = lower value; active means viability on the fitted dose curve at most 10% of control; inactive means the rest
Description: Combinatorial screen of targeted agents with the PI3K inhibitors inavolisib, alpelisib, duvelisib, and copanlisib in multi-cell type tumor spheroids
A high-throughput screen of multi-cell type tumor spheroids was designed to identify active combinations of targeted small molecules and PI3K pathway inhibitors. Complex spheroids include a stromal component modeled by human endothelial cells (HUVEC) and fibroblasts modeled by human mesenchymal stem cells (MSCs). The concentration ranges selected for each drug and investigational agent were based upon clinically achievable concentrations if the clinical Cmax of the agent was known.
Compounds. The drugs and investigational agents: inavolisib (NSC800729), alpelisib (NSC765974), duvelisib (NSC772469), copanlisib (NSC816437), ipatasertib (NSC767898), afuresertib (NSC778305), talazoparib (NSC767125), sapanisertib (NSC764658), selumetinib (NSC741078), tovorafenib (DAY101, NSC766906), vemurafenib (NSC761431), ravoxertinib (NSC781343), sotorasib (NSC818433), MRTX1133 (NSC 836407), abemaciclib (NSC 768073), palbociclib (NSC758247), venetoclax (NSC 766270), SY5609 (NSC837396), enzalutamide (NSC755605), and darolutamide (NSC825331), were obtained from the National Cancer Institute (NCI) Developmental Therapeutics Program Chemical Repository. The FDA-approved anticancer drug set is available from the NCI Developmental Therapeutics Program. […] The stock solutions were prepared in dimethyl sulfoxide (DMSO, Sigma-Aldrich, St. Louis, MO, cat. D2650) at 800-fold the tested concentration and stored at -70 degrees C prior to their use. All drugs and investigational agents were tested over a range starting from a high concentration at or near the clinical Cmax and decreasing in half-log increments. If the clinical Cmax for an agent had not been determined, the highest concentration tested was 10 microM.
Cell Culture. All cells were maintained in an incubator at 37 degrees C and 5% CO2 with 95% humidity. The PDC lines were cultured according to standard operating procedures established by the NCI PDMR (https://pdmr.cancer.gov/sops/default.htm). All PDCs were thawed and cultured in Matrigel-coated flasks prepared with a working solution of 1X Ham's F-12 nutrient mix, without supplementation (Invitrogen, Waltham, MA, cat. 11765054), 100 U/mL penicillin-streptomycin (Invitrogen, cat. 15140122), and 2.5% Matrigel (Corning Inc., Corning, NY, cat. 354248) for the first three passages. The 354836-022-R-J1-PDC, 475296-252-R-J1-PDC, and 997726-040-R-J2-PDC lines were cultured in 6A media, which includes advanced DMEM/F-12 (Thermo Fisher Scientific, cat. 12634028), 10 mM HEPES (Thermo Fisher Scientific, cat. 15630080), 1X GlutaMAX supplement (Thermo Fisher Scientific, cat. 35050061), 0.1 mg/mL primocin (InvivoGen, San Diego, CA, cat. ant-pm-2), 10% defined fetal bovine serum, heat inactivated (HyClone Laboratories Inc., Logan, UT, cat. SH30070.03HI), 50% L-WRN conditioned media (ATCC, cat. CRL-3276), 1.25 mM N-Acetyl-L-cysteine (Sigma-Aldrich, cat. A9165), 10 mM nicotinamide (Sigma-Aldrich, cat. N0636), 1X B-27 supplement (Thermo Fisher Scientific, cat. 17504044), 1X N-2 supplement (Thermo Fisher Scientific, cat. 17502048), and 10 microM Y-27632 dihydrochloride (Tocris Bioscience, Bristol, United Kingdom, cat. 1254). The 624824-186-R-J2-PDC line was cultured in 6C/Colon 1B media, which includes all 6A media components plus 50 ng/mL human EGF recombinant protein (Thermo Fisher Scientific, cat. PHG0311). […]

[1] = second compound 0.0316 µM, first compound 0.0316 µM
[2] = second compound 0.0316 µM, first compound 0.1 µM
[3] = second compound 0.0316 µM, first compound 0.316 µM
[4] = second compound 0.0316 µM, first compound 1 µM
[5] = second compound 0.0316 µM, first compound 3.16 µM
[6] = second compound 0.0316 µM, first compound 10 µM
[7] = second compound 0.1 µM, first compound 0.0316 µM
[8] = second compound 0.1 µM, first compound 0.1 µM
[9] = second compound 0.1 µM, first compound 0.316 µM
[10] = second compound 0.1 µM, first compound 1 µM
[11] = second compound 0.1 µM, first compound 3.16 µM
[12] = second compound 0.1 µM, first compound 10 µM
[13] = second compound 0.316 µM, first compound 0.0316 µM
[14] = second compound 0.316 µM, first compound 0.1 µM
[15] = second compound 0.316 µM, first compound 0.316 µM
[16] = second compound 0.316 µM, first compound 1 µM
[17] = second compound 0.316 µM, first compound 3.16 µM
[18] = second compound 0.316 µM, first compound 10 µM
[19] = second compound 1 µM, first compound 0.0316 µM
[20] = second compound 1 µM, first compound 0.1 µM
[21] = second compound 1 µM, first compound 0.316 µM
[22] = second compound 1 µM, first compound 1 µM
[23] = second compound 1 µM, first compound 3.16 µM
[24] = second compound 1 µM, first compound 10 µM
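Further: spheroids exposed to agents for 7 days before viability read.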

C#Cc1c(F)ccc2cc(O)cc(-c3ncc4c(N5CC6CCC(C5)N6)nc(OCC56CCCN5CC(F)C6)nc4c3F)c12 (centres undefined) + COc1c(OCCCN2CCOCC2)ccc2c3n(c(=NC(=O)c4cnc(N)nc4)nc12)CCN3
> 10 µM: IC50 (second compound 0.00316 µM) | IC50 (second compound 0.01 µM) | IC50 (second compound 0.0316 µM)
inactive: viability, T/C (second compound 0.00316 µM, first compound 0.0316 µM) 102% | viability, T/C (second compound 0.00316 µM, first compound 0.1 µM) 95.9% | viability, T/C (second compound 0.00316 µM, first compound 0.316 µM) 98.6% | viability, T/C (second compound 0.00316 µM, first compound 1 µM) 94.2% | viability, T/C (second compound 0.00316 µM, first compound 3.16 µM) 108% | viability, T/C (second compound 0.00316 µM, first compound 10 µM) 117% | viability, T/C (second compound 0.01 µM, first compound 0.0316 µM) 98.1% | viability, T/C (second compound 0.01 µM, first compound 0.1 µM) 97.2% | viability, T/C (second compound 0.01 µM, first compound 0.316 µM) 96.6% | viability, T/C (second compound 0.01 µM, first compound 1 µM) 89% | viability, T/C (second compound 0.01 µM, first compound 3.16 µM) 104% | viability, T/C (second compound 0.01 µM, first compound 10 µM) 98% | viability, T/C [1] 79.6% | viability, T/C [2] 88.2% | viability, T/C [3] 91.3% | viability, T/C [4] 87.2% | viability, T/C [5] 69.9% | viability, T/C [6] 57.6% | viability, T/C [7] 37.4% | viability, T/C [8] 42.2% | viability, T/C [9] 46.3% | viability, T/C [10] 39% | viability, T/C [11] 34.7% | viability, T/C [12] 18.5% | viability, T/C [13] 22.8% | viability, T/C [14] 22.4% | viability, T/C [15] 21.6% | viability, T/C [16] 13.1% | viability, T/C [17] 17.2% | viability, T/C [19] 16.2% | viability, T/C [20] 14.6% | viability, T/C [21] 14.8%
< 0.0316 µM: IC50 (second compound 0.1 µM) | IC50 (second compound 0.316 µM) | IC50 (second compound 1 µM)
active: viability, T/C [18] 5.33% | viability, T/C [22] 9.87% | viability, T/C [23] 6.91% | viability, T/C [24] 3.67%

CC1(C)CCC(Nc2ncc(C(F)(F)F)c(-c3c[nH]c4c(P(C)(C)=O)c(C#N)ccc34)n2)CN1 (centres undefined) + Cc1nc(NC(=O)N2CCCC2C(N)=O)sc1-c1ccnc(C(C)(C)C(F)(F)F)c1
inactive: viability, T/C [1] 81.7% | viability, T/C [2] 84.6% | viability, T/C [3] 72.8% | viability, T/C [4] 85.5% | viability, T/C [5] 101% | viability, T/C [6] 15.4% | viability, T/C [7] 91.4% | viability, T/C [8] 75.8% | viability, T/C [9] 79% | viability, T/C [10] 79.9% | viability, T/C [11] 84.4% | viability, T/C [12] 13.2% | viability, T/C [13] 82.5% | viability, T/C [14] 75.5% | viability, T/C [15] 65.4% | viability, T/C [16] 75.9% | viability, T/C [17] 85% | viability, T/C [18] 11.2% | viability, T/C [19] 107% | viability, T/C [20] 76.7% | viability, T/C [21] 72.2% | viability, T/C [22] 86.7% | viability, T/C [23] 68% | viability, T/C (second compound 3.16 µM, first compound 0.0316 µM) 78.5% | viability, T/C (second compound 3.16 µM, first compound 0.1 µM) 72.2% | viability, T/C (second compound 3.16 µM, first compound 0.316 µM) 75.5% | viability, T/C (second compound 3.16 µM, first compound 1 µM) 54.8% | viability, T/C (second compound 3.16 µM, first compound 3.16 µM) 44.5% | viability, T/C (second compound 10 µM, first compound 0.0316 µM) 65.1% | viability, T/C (second compound 10 µM, first compound 0.1 µM) 60% | viability, T/C (second compound 10 µM, first compound 0.316 µM) 50.6% | viability, T/C (second compound 10 µM, first compound 1 µM) 44.5% | viability, T/C (second compound 10 µM, first compound 3.16 µM) 40.2%
1.9 µM: IC50 (second compound 3.16 µM)
active: viability, T/C [24] 7.36% | viability, T/C (second compound 3.16 µM, first compound 10 µM) 5.2% | viability, T/C (second compound 10 µM, first compound 10 µM) 2.06%
5.06 µM: IC50 (second compound 0.316 µM)
0.841 µM: IC50 (second compound 10 µM)
5.65 µM: IC50 (second compound 0.0316 µM)
4.44 µM: IC50 (second compound 1 µM)
5.41 µM: IC50 (second compound 0.1 µM)
